Results as given in ChEMBL document CHEMBL5042493, “Enhancing monoamine oxidase B inhibitory activity via chiral fluorination: Structure-activity relationship, biological evaluation, and molecular docking study” (Eur J Med Chem, 2022).
Active and inactive are the calls of the source. The calls are words filed in the database; no cut-off is given here.

What was measured:
Mus musculus [1] = test: Neuroprotective activity against MPTP-induced C57BL/6 mouse model of Parkinson's disease assessed as increase in DA level in striatum at 1.25 to 5 mg/kg, ip pretreated with MPTP for 4 hrs followed by incubation with compound for five times at 24 hrs interval and measured after 30 mins by HPLC electrochemical detection method in the presence of L-dopa and benserazide; type: functional, organism-based; conditions: dose 1.25-5 mg/kg, time 24.5 hrs
Homo sapiens = species on record: Homo sapiens; test: Selectivity index, ratio of IC50 for recombinant human MAO-A expressed in Sf9 cells to IC50 for recombinant human MAO-B expressed in Sf9 cells
[2] = AUC (0-t) in Sprague dawley rat at 1 mg/kg, iv measured upto 24 hrs; type: ADME, organism-based; parameters: route intravenous, dose 1 mg/kg, time <=24; conditions: in vivo
[3] = Cmax in Sprague dawley rat at 5 mg/kg, po measured upto 24 hrs; type: ADME, organism-based; parameters: route oral, dose 5 mg/kg, time <=24; conditions: in vivo
[4] = AUC (0-t) in Sprague dawley rat at 5 mg/kg, po measured upto 24 hrs; type: ADME, organism-based; parameters: route oral, dose 5 mg/kg, time <=24; conditions: in vivo
[5] = Oral bioavailability in Sprague dawley rat at 5 mg/kg measured upto 24 hrs; type: ADME, organism-based; conditions: in vivo
[6] = Half life in Cynomolgus monkey at 1 mg/kg, iv measured upto 24 hrs; type: ADME, organism-based, Macaca fascicularis; conditions: in vivo
[7] = Volume of distribution at steady state in Cynomolgus monkey at 1 mg/kg, iv measured upto 24 hrs; type: ADME, organism-based, Macaca fascicularis; conditions: in vivo, read-out: Vdss
[8] = Clearance in Cynomolgus monkey rat at 1 mg/kg, iv measured upto 24 hrs; type: ADME, organism-based, Macaca fascicularis; conditions: in vivo
[9] = Cmax in Cynomolgus monkey rat at 5 mg/kg, po measured upto 24 hrs; type: ADME, organism-based, Macaca fascicularis; parameters: route oral, dose 5 mg/kg, time <=24; conditions: in vivo
[10] = Half life in Cynomolgus monkey rat at 5 mg/kg, po measured upto 24 hrs; type: ADME, organism-based, Macaca fascicularis; conditions: in vivo
[11] = Metabolic stability in rat liver microsome assessed as half life at 1 uM measured after 60 min in presence of NADPH by LC-MS/MS analysis; type: ADME; conditions: liver microsomes
[12] = Metabolic stability in mouse liver microsome assessed as half life at 1 uM measured after 60 min in presence of NADPH by LC-MS/MS analysis; type: ADME; conditions: liver microsomes
[13] = Metabolic stability in dog liver microsome assessed as half life at 1 uM measured after 60 min in presence of NADPH by LC-MS/MS analysis; type: ADME, Canis lupus familiaris; conditions: liver microsomes
[14] = Metabolic stability in monkey liver microsome assessed as half life at 1 uM measured after 60 min in presence of NADPH by LC-MS/MS analysis; type: ADME, Macaca mulatta; conditions: rhesus monkey, liver microsomes
Cytochrome P450 1A2 = target: T1, Cytochrome P450 1A2 (Homo sapiens, UniProt P05177); test: Inhibition of human CYP1A2 preincubated for 10 min followed by addition of NADPH and measured after 10 min by LC-MS/MS analysis; type: ADME
T1 sequence (P05177 whole entry): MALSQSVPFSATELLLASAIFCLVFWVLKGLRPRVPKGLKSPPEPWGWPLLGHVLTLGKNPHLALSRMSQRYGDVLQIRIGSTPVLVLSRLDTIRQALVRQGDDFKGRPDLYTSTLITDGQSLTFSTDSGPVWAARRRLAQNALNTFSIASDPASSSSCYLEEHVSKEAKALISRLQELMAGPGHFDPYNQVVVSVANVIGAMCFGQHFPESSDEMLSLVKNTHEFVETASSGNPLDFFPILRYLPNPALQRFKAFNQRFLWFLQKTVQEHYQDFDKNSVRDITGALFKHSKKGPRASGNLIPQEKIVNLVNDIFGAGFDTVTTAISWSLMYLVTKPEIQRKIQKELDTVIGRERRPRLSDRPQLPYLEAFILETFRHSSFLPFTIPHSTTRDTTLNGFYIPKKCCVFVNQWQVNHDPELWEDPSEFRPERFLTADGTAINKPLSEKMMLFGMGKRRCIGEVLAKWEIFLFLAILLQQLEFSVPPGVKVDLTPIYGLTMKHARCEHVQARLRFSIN

Cytochrome P450 2C19 = Cytochrome P450 2C19 (Homo sapiens, UniProt P33261); test: Inhibition of human CYP2C19 preincubated for 10 min followed by addition of NADPH and measured after 45 min by LC-MS/MS analysis; type: ADME
Cytochrome P450 3A4 = Cytochrome P450 3A4 (Homo sapiens, UniProt P08684); test: Inhibition of human CYP3A4 preincubated for 10 min followed by addition of NADPH and measured after 5 min by LC-MS/MS analysis; type: ADME
Cytochrome P450 3A5 = Cytochrome P450 3A5 (Homo sapiens, UniProt P20815); test: Inhibition of human CYP3A5 preincubated for 10 min followed by addition of NADPH and measured after 5 min by LC-MS/MS analysis; type: ADME
[15] = Plasma protein binding in human assessed as unbound fraction at 1 uM measured after 5 hrs by LC-MS/MS analysis; type: ADME, cell-free
[16] = Plasma protein binding in dog assessed as unbound fraction at 1 uM measured after 5 hrs by LC-MS/MS analysis; type: ADME, cell-free, Canis lupus familiaris
[17] = Plasma protein binding in monkey assessed as unbound fraction at 1 uM measured after 5 hrs by LC-MS/MS analysis; type: ADME, cell-free, Macaca mulatta; conditions: rhesus monkey
[18] = Apparent permeability in MDCK-MDR1 cells from apical to basal side at 10 uM; type: ADME, cell-based, Canis lupus familiaris; conditions: dog
Mus musculus [19] = test: Neuroprotective activity against MPTP-induced C57BL/6 mouse model of Parkinson's disease assessed as increase in DA level in striatum at 0.625 to 2.5 mg/kg, ip pretreated for 15 mins followed by MPTP challenge and measured after 8 days post MPTP challenge by HPLC electrochemical detection method; type: functional, organism-based; conditions: dose 0.625-2.5 mg/kg, time 8.0 day
[20] = Toxicity in MPTP-induced C57BL/6 mouse model of Parkinson's disease assessed as effect on locomotor activity by measuring rearing activity at 0.625 to 1.25 mg/kg, ip pretreated for 15 mins followed by MPTP challenge and measured after 5 days post MPTP challenge; type: organism-based; conditions: in vivo, 120 h, dose 0.625-1.25 mg/kg, time 5 day
Mus musculus [21] = test: In vivo inhibition of MAO-B in ICR mouse brain at 0.4 to 2 mg/kg, ip administered once a week for 21 days by fluorescence based monoamine oxidase assay; type: functional, organism-based; conditions: dose 0.4-2 mg/kg, time 21.0 day
Salmonella typhimurium = test: Genotoxicity in Salmonella typhimurium by Ames test; type: toxicity, organism-based; conditions: salmonella enterica subsp. enterica serovar typhimurium

Sequence of Cytochrome P450 3A4 (P08684 whole entry): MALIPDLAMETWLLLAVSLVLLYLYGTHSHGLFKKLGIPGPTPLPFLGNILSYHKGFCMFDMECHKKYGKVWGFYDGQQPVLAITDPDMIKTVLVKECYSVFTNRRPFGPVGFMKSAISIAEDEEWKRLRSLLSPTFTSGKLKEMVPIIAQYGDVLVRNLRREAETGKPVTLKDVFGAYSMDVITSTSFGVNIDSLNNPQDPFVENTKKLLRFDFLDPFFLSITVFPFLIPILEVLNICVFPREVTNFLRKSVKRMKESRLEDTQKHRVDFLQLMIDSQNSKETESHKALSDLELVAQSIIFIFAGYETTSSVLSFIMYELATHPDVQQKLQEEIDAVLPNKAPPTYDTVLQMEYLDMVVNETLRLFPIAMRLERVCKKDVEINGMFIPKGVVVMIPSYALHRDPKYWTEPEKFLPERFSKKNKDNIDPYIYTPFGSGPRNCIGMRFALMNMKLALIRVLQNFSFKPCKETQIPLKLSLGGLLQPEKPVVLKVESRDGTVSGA
Sequence of Cytochrome P450 3A5 (P20815 whole entry): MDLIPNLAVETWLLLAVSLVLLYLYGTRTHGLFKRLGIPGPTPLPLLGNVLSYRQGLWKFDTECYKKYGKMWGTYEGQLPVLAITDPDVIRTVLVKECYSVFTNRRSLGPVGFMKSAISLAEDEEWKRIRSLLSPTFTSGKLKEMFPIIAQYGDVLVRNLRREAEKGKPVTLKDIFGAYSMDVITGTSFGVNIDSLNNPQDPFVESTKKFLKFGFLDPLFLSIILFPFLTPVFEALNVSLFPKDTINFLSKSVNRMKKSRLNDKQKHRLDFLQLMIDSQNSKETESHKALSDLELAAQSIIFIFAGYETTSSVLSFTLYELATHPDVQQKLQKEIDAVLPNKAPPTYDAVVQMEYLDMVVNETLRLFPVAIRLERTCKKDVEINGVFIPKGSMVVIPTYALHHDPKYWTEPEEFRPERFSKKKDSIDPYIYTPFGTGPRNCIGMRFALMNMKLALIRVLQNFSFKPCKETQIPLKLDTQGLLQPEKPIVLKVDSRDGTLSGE
Sequence of Cytochrome P450 2C19 (P33261 whole entry): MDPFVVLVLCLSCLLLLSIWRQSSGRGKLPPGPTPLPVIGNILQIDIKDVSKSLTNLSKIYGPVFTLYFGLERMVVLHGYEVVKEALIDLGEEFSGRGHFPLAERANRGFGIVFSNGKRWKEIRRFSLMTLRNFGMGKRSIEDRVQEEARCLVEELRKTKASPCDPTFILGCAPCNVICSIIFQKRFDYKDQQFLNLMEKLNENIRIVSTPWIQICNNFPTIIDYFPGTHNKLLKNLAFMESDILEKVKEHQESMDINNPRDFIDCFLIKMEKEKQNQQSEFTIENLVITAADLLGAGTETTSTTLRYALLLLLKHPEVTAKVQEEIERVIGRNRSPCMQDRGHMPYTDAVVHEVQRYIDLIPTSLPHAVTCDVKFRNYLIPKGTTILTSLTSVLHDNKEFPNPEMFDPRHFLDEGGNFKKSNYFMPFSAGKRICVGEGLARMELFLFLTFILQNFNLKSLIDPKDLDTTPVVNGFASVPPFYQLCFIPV

NC(=O)[C@@H]1C[C@H](F)CN1Cc1ccc(OCc2cccc(F)c2)cc1
Activity (Mus musculus [1]): Active
Ratio IC50 (Homo sapiens): 2440
AUC(0-t) at 24 h [2]: 505 ng·h/mL
Cmax [3]: 1000 ng/mL
AUC(0-t) at 24 h [4]: 1400 ng·h/mL
bioavailability [5]: 55.2%
half-life [6]: 106 min
Vd [7]: 1.06 L/kg
clearance [8]: 7.54 mL/min/kg
Cmax [9]: 2280 ng/mL
half-life [10]: 168 min
half-life at 1 µM [11]: 11.5 min
half-life at 1 µM [12]: 9.37 min
half-life at 1 µM [13]: 51.1 min
half-life at 1 µM [14]: 36.9 min
IC50 (Cytochrome P450 1A2): > 29 µM
IC50 (Cytochrome P450 2C19): > 29 µM
IC50 (Cytochrome P450 3A4): > 29 µM
IC50 (Cytochrome P450 3A5): > 29 µM
fraction unbound at 5 h, 1 µM [15]: 0.0363
fraction unbound at 5 h, 1 µM [16]: 0.0429
fraction unbound at 5 h, 1 µM [17]: 0.0407
Papp A→B at 10 µM [18]: 28.9 ×10⁻⁶ cm/s
Activity (Mus musculus [19]): Active
Activity [20]: Non-Toxic
inhibition (Mus musculus [21]): Active
Activity (Salmonella typhimurium): Non-Toxic
